Measurements reported in patent publication US20260206757A1, “METHODS OF CONTROLLING UNDESIRABLE PLANTS WITH PPO HERBICIDES AND COMBINATIONS IN HERBICIDE TOLERANT CROP PLANTS” (BASF AGRO B.V., priority 2022, published 2026).

Legend:
[1] = tested on: Ambrosia trifida; assay: Field experiment, pre-emergence herbicidal activity on bare ground; format: in vivo; conditions: AMBTR, Preem, Saflufenacil 50, Flumioxazin 71.4 g ai/ha
Description: (§1) Trial Objective: Efficacy of Saflufenacil in tank mix with Flumioxazin applied in pre-emergence of the weeds on bare ground.
(§2) On field test sites, natural weed infestation was treated, pre-emergence of the weeds on bare soil or post-emergence of the weeds.
(§3) For the pre-emergence treatment, the active compounds, suspended or emulsified in water, were applied by means of finely distributing nozzles on bare ground.
(§4) In the following experiments, the herbicidal activity for the individual herbicidal compositions (solo and mixture applications) was assessed up to 36 days after treatment (DAT). The assessments for the damage on undesired weeds caused by the chemical compositions was carried out using a scale from 0 to 100%, compared to the untreated control plants. Here, 0 means no damage and 100 means complete destruction of the plants.
(§5) [formula] • where X=effect in percent using herbicide (A) at an application rate a; • Y=effect in percent using herbicide (B) at an application rate b; • E=expected effect (in %) of herbicide (A)+herbicide (B) at application rates a+b.
(§6) The value E corresponds to the effect (plant damage or injury) which is to be expected if the activity of the individual compounds is additive. If the observed effect is higher than the value E calculated according to the Colby equation, a synergistic effect is present.

[2] = tested on: Digitaria sanguinalis; assay: as above; format: in vivo; conditions: DIGSA, Preem, Saflufenacil 25, Flumioxazin 71.4 g ai/ha
Description: as §1, §2, §3, §4, §5, §6

[3] = tested on: Amaranthus palmeri; assay: as above; format: in vivo; conditions: AMAPA, Preem, Saflufenacil 25, Flumioxazin 71.4 g ai/ha
Description: as §1, §2, §3, §4, §5, §6

[4] = tested on: Setaria faberi; assay: as above; format: in vivo; conditions: SETFA, Preem, Saflufenacil 50, Flumioxazin 71.4 g ai/ha
Description: as §1, §2, §3, §4, §5, §6

[5] = tested on: Urochloa texana; assay: as above; format: in vivo; conditions: PANTE
Description: as §1
(§7) Trial Objective: Efficacy of Saflufenacil in tank mix with Sulfentrazone applied in pre-emergence of the weeds on bare ground.
as §2, §3, §4, §5, §6

[6] = tested on: Eleusine indica; assay: as above; format: in vivo; conditions: ELEIN
Description: as §1, §7, §2, §3, §4, §5, §6

[7] = tested on: Convolvulus arvensis; assay: Greenhouse experiment, post emergence herbicidal activity; format: in vivo; conditions: CONAR
Description: (§8) For the post emergence treatment, the plants were first grown to the 2 to 4 leaf stage (GS 12/14). The plants were cultivated due to their individual requirements at 10-25° C. and 20-35° C. The plants were irrigated as required.
(§9) Here, the herbicidal compositions were suspended or emulsified in water as distribution medium and sprayed using finely distributing nozzles. 1% methylated seed oil (MSO) has been added as adjuvant to each of the solo and mixture treatments.
(§10) In the greenhouse experiments, the herbicidal activity for the individual herbicidal compositions (solo and mixture applications) was assessed 20/21 days after treatment (DAT).
(§11) The evaluation for the damage on undesired weeds caused by the chemical compositions was carried out using a scale from 0 to 100%, compared to the untreated control plants. Here, 0 means no damage and 100 means complete destruction of the plants.

[8] = tested on: Polygonum aviculare; assay: as above; format: in vivo; conditions: POLAV
Description: as §8, §9, §10, §11

[9] = tested on: Erigeron canadensis; assay: as above; format: in vivo; conditions: ERICA
Description: as §8, §9, §10, §11

[10] = tested on: Abutilon theophrasti; assay: as above; format: in vivo; conditions: ABUTH
Description: as §8, §9, §10, §11

[11] = tested on: Chenopodium album; assay: as above; format: in vivo; conditions: CHEAL
Description: as §8, §9, §10, §11

[12] = tested on: Matricaria chamomilla; assay: as above; format: in vivo; conditions: MATCH
Description: as §8, §9, §10, §11

[13] = tested on: Sonchus arvensis; assay: as above; format: in vivo; conditions: SONAR
Description: as §8, §9, §10, §11

[14] = tested on: Papaver rhoeas; assay: as above; format: in vivo; conditions: PAPRH
Description: as §8, §9, §10, §11

[15] = tested on: Setaria viridis; assay: as above; format: in vivo; conditions: SETVI
Description: as §8, §9, §10, §11

[16] = tested on: Sorghum halepense; assay: as above; format: in vivo; conditions: SORHA
Description: as §8, §9, §10, §11

[17] = tested on: Hibiscus trionum; assay: as above; format: in vivo; conditions: HIBTR
Description: as §8, §9, §10, §11

[18] = tested on: Mercuralis annua; assay: as above; format: in vivo; conditions: MERAN
Description: as §8, §9, §10, §11

[19] = tested on: Echinochloa crus-galli; assay: as above; format: in vivo; conditions: ECHCG
Description: as §8, §9, §10, §11

[20] = tested on: Ambrosia artemisiifolia; assay: as above; format: in vivo; conditions: AMBEL
Description: as §8, §9, §10, §11

[21] = tested on: HELAN Pacino; assay: Greenhouse experiment, crop safety of sunflower; format: in vivo, Helianthus annuus; conditions: scale 0 to 100%
Description: as §8, §9, §10, §11

[22] = Preem, Saflufenacil 50, Flumioxazin 71.4 g ai/ha
[23] = Preem, Saflufenacil 25, Flumioxazin 71.4 g ai/ha
[24] = BBCH 12-14, Flumioxazin 0.5, Halauxifen 1 g ai/ha
[25] = BBCH 12-14, Flumioxazin 0.5, Pyraflufen-ethyl 1.5 g ai/ha
[26] = BBCH 12-14, Saflufenacil 1, Flumioxazin 2 g ai/ha
[27] = BBCH 12-14, Flumioxazin 2, Fomesafen 123 g ai/ha
[28] = BBCH 12-14, Flumioxazin 2, Halauxifen 1 g ai/ha
[29] = BBCH 12-14, Flumioxazin 0.5, Bifenox 168 g ai/ha
[30] = BBCH 12-14, Flumioxazin 2, Tribenuron-methyl 6 g ai/ha
[31] = BBCH 12-14, Saflufenacil 4, Flumioxazin 2 g ai/ha
[32] = BBCH 12-14, Flumioxazin 0.5, Imazamox 10 g ai/ha
[33] = BBCH 12-14, Saflufenacil 0.5, Flumioxazin 2 g ai/ha
[34] = preemergence, Saflufenacil 25, Sulfentrazone 210 g ai/ha
[35] = BBCH 12-14, Saflufenacil 0.5, Clethodim 30 g ai/ha
[36] = BBCH 12-14, Saflufenacil 1, Bifenox 168 g ai/ha
[37] = BBCH 12-14, Saflufenacil 1, Imazamox 10 g ai/ha
[38] = BBCH 12-14, Saflufenacil 0.5, Bifenox 168 g ai/ha

For `C#CCN1C(=O)COc2cc(F)c(N3C(=O)C4=C(CCCC4)C3=O)cc21` [Flumioxazin, 2-[7-fluoro-3,4-dihydro-3-oxo-4-(2-propyn-1-yl)-2H-1,4-benzoxazin-6-yl]-4,5,6,7-tetrahydro-1H-isoindole-1,3 (2H)-dione], which “% Herbicidal activity” value [1] is on record?
The value was 65%.

What about the “% Herbicidal activity” value [2] of the same compound?
The value was 88%.

And the “% Herbicidal activity” value [3]?
The value was 85%.

What about the “% Herbicidal activity” value [4] of the same compound?
The value was 72%.

What about the “% Herbicidal activity” value [5, 22] of the same compound?
The value was 35%.

What about the “% Herbicidal activity” value [6, 23] of the same compound?
The value was 80%.

What about the “% Herbicidal activity” value ([7]; BBCH 12-14, Flumioxazin 0.5, Fomesafen 123 g ai/ha) of the same compound?
The value was 65%.

What about the “% Herbicidal activity” value [7, 24] of the same compound?
The value was 65%.

And the “% Herbicidal activity” value ([7]; BBCH12-14, Flumioxazin 0.5, Pyraflufen-ethyl 1.5 g ai/ha)?
The value was 65%.

What about the “% Herbicidal activity” value [8, 25] of the same compound?
Its value is 45%.

What about the “% Herbicidal activity” value ([8]; BBCH 12-14, Flumioxazin 4, Bifenox 168 g ai/ha) of the same compound?
Its value is 95%.

And the “% Herbicidal activity” value [8, 26]?
The value was 80%.

And the “% Herbicidal activity” value ([9]; BBCH 12-14, Flumioxazin 1, Pyraflufen-ethyl 1.5 g ai/ha)?
The value was 60%.

And the “% Herbicidal activity” value [9, 26]?
The value was 75%.

And the “% Herbicidal activity” value ([10]; BBCH 12-14, Flumioxazin 1, Imazamox 10 g ai/ha)?
Its value is 90%.

What about the “% Herbicidal activity” value ([10]; BBCH 12-14, Flumioxazin 2, Bifenox 168 g ai/ha) of the same compound?
The value was 98%.

And the “% Herbicidal activity” value ([11]; BBCH 12-14, Flumioxazin 1, Bifenox 168 g ai/ha)?
The value was 70%.

And the “% Herbicidal activity” value [11, 27]?
Its value is 70%.

And the “% Herbicidal activity” value ([12]; BBCH 12-14, Flumioxazin 1, Fomesafen 123 g ai/ha)?
Its value is 60%.

What about the “% Herbicidal activity” value [12, 28] of the same compound?
Its value is 65%.

And the “% Herbicidal activity” value [12, 26]?
Its value is 75%.

And the “% Herbicidal activity” value [13, 29]?
Its value is 50%.

And the “% Herbicidal activity” value [13, 25]?
Its value is 50%.

What about the “% Herbicidal activity” value [13, 28] of the same compound?
The value was 50%.

What about the “% Herbicidal activity” value [14, 29] of the same compound?
The value was 85%.

What about the “% Herbicidal activity” value [14, 24] of the same compound?
Its value is 85%.

And the “% Herbicidal activity” value [14, 30]?
Its value is 85%.

What about the “% Herbicidal activity” value [15, 24] of the same compound?
Its value is 30%.

What about the “% Herbicidal activity” value [15, 30] of the same compound?
The value was 70%.

And the “% Herbicidal activity” value [15, 26]?
Its value is 65%.

And the “% Herbicidal activity” value [16, 31]?
The value was 50%.

What about the “% Herbicidal activity” value [17, 32] of the same compound?
Its value is 75%.

What about the “% Herbicidal activity” value [17, 33] of the same compound?
Its value is 90%.

And the “% Herbicidal activity” value [18, 32]?
The value was 70%.

What about the “% Herbicidal activity” value [19, 27] of the same compound?
The value was 55%.

And the “% Herbicidal activity” value ([20]; BBCH 12-14, Flumioxazin 4, Imazamox 10 g ai/ha)?
Its value is 95%.

What about the “Observed crop damage 21 days after treatment” value [21, 29] of the same compound?
The value was 65%.

What about the “Observed crop damage 21 days after treatment” value [21, 24] of the same compound?
The value was 65%.

Which results are given for `CC(C)N(C)S(=O)(=O)NC(=O)c1cc(-n2c(=O)cc(C(F)(F)F)n(C)c2=O)c(F)cc1Cl` [Saflufenacil, 2-chloro-5-[3,6-dihydro-3-methyl-2,6-dioxo-4-(trifluoromethyl)-1-(2H)pyrimidinyl]-4-fluoro-N-[[methyl (1-methylethyl)amino]-sulfonyl]benzamide]?
% Herbicidal activity [1]: 67%; % Herbicidal activity [2]: 7%; % Herbicidal activity [3]: 27%; % Herbicidal activity [4]: 37%; % Herbicidal activity [5, 22]: 13%; % Herbicidal activity [5, 34]: 20%; % Herbicidal activity [6, 23]: 3%; % Herbicidal activity [6, 34]: 8%; % Herbicidal activity [7, 35]: 30%; % Herbicidal activity ([7]; BBCH 12-14, Saflufenacil 0.5, Halauxifen 1 g ai/ha): 30%; % Herbicidal activity [7, 36]: 80%; % Herbicidal activity [8, 35]: 75%; % Herbicidal activity [8, 26]: 3%; % Herbicidal activity [9, 26]: 90%; % Herbicidal activity [10, 36]: 90%; % Herbicidal activity ([10]; BBCH 12-14, Saflufenacil 2, Fomesafen 1 g ai/ha): 70%; % Herbicidal activity ([11]; BBCH 12-14, Saflufenacil 4, Clethodim 30 g ai/ha): 95%; % Herbicidal activity [12, 35]: 45%; % Herbicidal activity [12, 26]: 45%; % Herbicidal activity [12, 37]: 45%; % Herbicidal activity ([12]; BBCH 12-14, Saflufenacil 2, Halauxifen 1 g ai/ha): 98%; % Herbicidal activity [13, 35]: 98%; % Herbicidal activity [14, 38]: 95%; % Herbicidal activity ([15]; BBCH 12-14, Saflufenacil 0.5, Imazamox 10 g ai/ha): 25%; % Herbicidal activity [15, 26]: 70%; % Herbicidal activity ([16]; BBCH 12-14, Saflufenacil 4, Bifenox 168 g ai/ha): 60%; % Herbicidal activity [16, 31]: 60%; % Herbicidal activity [17, 35]: 80%; % Herbicidal activity [17, 33]: 80%; % Herbicidal activity [18, 38]: 60%; % Herbicidal activity ([19]; BBCH 12-14, Saflufenacil 4, Fomesafen 123 g ai/ha): 85%; % Herbicidal activity [20, 36]: 80%; % Herbicidal activity ([20]; BBCH 12-14, Saflufenacil 1, Clethodim 30 g ai/ha): 80%; % Herbicidal activity [20, 37]: 80%; % Herbicidal activity ([20]; BBCH 12-14, Saflufenacil 1, Tribenuron-methyl 6 g ai/ha): 80%
